# Reference: patent US6395896B2, “Pyridazine derivatives, manufacturing method and related composition” (Shiseido Co., Ltd., priority 1999, dated 2002)
# Legend:
# [1] = Stability test in case of including UV shielding agent of inorganic powder (sun-screen cream); type: physicochemical; conditions: sun-screen cream with inorganic powder, 10.0 wt % ultraviolet absorbent; 2 months at 50° C.; visual observation
# Description: The sun screen cream of the following formulation was manufactured. These were preserved for 2 months at 50° C. By visual observation of discoloration, the inventors have checked stability when using an UV shielding agent of inorganic powder which is included as external skin preparation for the ultraviolet rays defense.
# After (2) was added to (1) and was swelled sufficiently, (3) to (11) was added thereto and was mixed with heating. The mixture was sufficiently dissolved with dispersing. This dispersed liquid was kept at 70° C. After this dispersed liquid was emulsified homogeneously by homomixer with adding a mixture of (12) to (15) gradually, which was cooled to 30° C. with stirring well to obtain sun screen.
# [2] = Photostability test (aqueous solution exposed to sunlight); type: physicochemical; conditions: sunlight 80 MJ/m^2, two weeks
# Description: After an aqueous solution of the pyridazine derivative of the present invention was exposed to sunlight (Amount of solar radiation exposure 80 MJ/m^2) for two weeks, residual yield and change of appearance were checked. UV absorption spectrum (Solvent: water, concentration: 10 ppm, Light path: 1 cm) was measured by spectrophotometer. Area value was calculated by integrating over the range of 290 nm to 400 nm of the ultraviolet rays absorption spectrum. The area value was compared with the value before sunlight exposure.
# The residual yield and change of area value of ultraviolet rays absorption spectrum were evaluated by the following standard.
# A: 95% or more of area value before sunlight exposure.
# B: 90% or more and less than 95% of area value before sunlight exposure.
# C: 70% or more and less than 90% of area value before sunlight exposure.
# D: less than 70% of area value before sunlight exposure.
# [3] = Perfume stabilization effect (sequestering agent combination); parameters: key to Sunlight exposure (80 MJ) Smell evaluation: A: No change; B: No almost change; C: Yes change; conditions: for smell change: with a sequestering agent, compared with compositions without; for Sunlight exposure (80 MJ) Smell evaluation: amounts wt %
# Description: Next, for combinations with sequestering agent, photostabilization effect for each perfume was studied by the following evaluation formulation.
# Each test sample was prepared. Smell change of samples exposed to sunlight (80 MJ) was observed (judgement by perfumier).
# [4] = Drug stabilization effect (photostabilizer, sunlight exposure); parameters: key to Sunlight exposure (80 MJ) Appearance: A: No change; B: No almost change; C: Yes change; conditions: for Sunlight exposure (80 MJ) Appearance / Sunlight exposure (80 MJ) Residual yield [%]: photostabilizer 0.05, amounts wt %
# Description: Next, the photo stabilization effect and changes in appearance in drug compositions were studied according to the following evaluation formulation.
# Each test sample was prepared. Appearance changes of the samples exposed to sunlight (80 MJ) was observed (visual evaluation). Also, residual yield was measured by liquid chromatography.
# sunburn = assay: Ultraviolet rays prevention effect test on a beach (lotion and cream samples); type: in vivo, human
# Description: The prevention effect test was carried out on a beach during the summer. Equal amounts of sample were applied to the right and left sides of the backs of test subjects. After direct sunlight exposure, the degree of sunburn was evaluated in accordance with the following criteria. Each group consisted of 20 subjects. (Criterion) Remarkable effect: None or almost no sunburn symptom was found. Positive effect: Slight sunburn symptom was found. Negative effect: Strong sunburn symptom was found. (Evaluation) A: Subject of remarkable effect or positive effect is 80% or more. B: Subject of remarkable effect or positive effect is 50% or more and less than 80%. C: Subject of remarkable effect or positive effect is 30% or more and less than 50%. D: Subject of remarkable effect or positive effect is less than 30% (ii) Preparation of sample (A) Lotion [table] Each of water phase and alcohol phase was prepared. Then each was mixed. (B) Cream [table] The propylene glycol was added to ion-exchanged water and was dissolved, which was kept at 70° C. by heating (Water phase). The other components were mixed and melted by heating and was kept at 70° C. (Oil phase). The oil phase was added to the water phase, and an emulsion was formed.. After it was homogeneously emulsified with a homogenixer, it was cooled at 30° C. with stirring well.
# [5] = drug 2-o-α-α-glucopyranosyl-L-ascorbic acid 2.0
# [6] = drug Dibutylhydroxytoluene 0.01
# [7] = drug Dipotassium glycyrrhizinate 0.05
# [8] = drug L-ascorbic acid 2-(dl-α-tocopheryl hydrogen phosphate) potassium salt 0.01
# [9] = drug combined with photostabilizer, sunlight 80 MJ, summary of Table 23
smiles,measurement,setting,value
"Oc1nncc(N2CCOCC2)c1N1CCOCC1 [4,5-Dimorpholino-3-hydroxypyridazine]",Discoloration,[1],No
same,Residual yield,[2],A (95% or more of area value before sunlight exposure.)
same,Change of area value of UV absorption spectrum,[2]; 290 nm to 400 nm,A (95% or more of area value before sunlight exposure.)
same,melting point,,256 to 257 °C (dec.)
same,smell change,"[3]; base perfume, Table 29",very small
same,Sunlight exposure (80 MJ) Smell evaluation,"[3]; natural perfume Bergamot oil 0.03, photostabilizer 0.05 + Trisodium ethylenediamine tetraacetate 0.03",A
same,Sunlight exposure (80 MJ) Smell evaluation,"[3]; natural perfume Bergamot oil 0.03, photostabilizer 0.05, no sequestering agent",B
same,Sunlight exposure (80 MJ) Smell evaluation,"[3]; natural perfume Jasmine oil 0.03, photostabilizer 0.02 + Sodium metaphosphate 0.03",A
same,Sunlight exposure (80 MJ) Smell evaluation,"[3]; natural perfume Jasmine oil 0.03, photostabilizer 0.02, no sequestering agent",B
same,Sunlight exposure (80 MJ) Smell evaluation,"[3]; natural perfume Lavender oil 0.03, photostabilizer 0.02 + Trisodium hydroxyethyl ethylenediamine triacetate 0.03",A
same,Sunlight exposure (80 MJ) Smell evaluation,"[3]; natural perfume Lavender oil 0.03, photostabilizer 0.02, no sequestering agent",B
same,Sunlight exposure (80 MJ) Smell evaluation,"[3]; natural perfume Musk oil 0.03, photostabilizer 0.1 + Sodium metaphosphate 0.03",A
same,Sunlight exposure (80 MJ) Smell evaluation,"[3]; natural perfume Musk oil 0.03, photostabilizer 0.1, no sequestering agent",B
same,Sunlight exposure (80 MJ) Smell evaluation,"[3]; natural perfume Orange oil 0.03, photostabilizer 0.05 + Sodium metaphosphate 0.03",A
same,Sunlight exposure (80 MJ) Smell evaluation,"[3]; natural perfume Orange oil 0.03, photostabilizer 0.05, no sequestering agent",B
same,Sunlight exposure (80 MJ) Smell evaluation,"[3]; natural perfume Peppermint oil 0.03, photostabilizer 0.01 + Trisodium ethylenediamine triacetate 0.03",A
same,Sunlight exposure (80 MJ) Smell evaluation,"[3]; natural perfume Peppermint oil 0.03, photostabilizer 0.01, no sequestering agent",B
same,Sunlight exposure (80 MJ) Smell evaluation,"[3]; natural perfume Rose oil 0.03, photostabilizer 0.02 + Trisodium ethylenediamine tetraacetate 0.03",A
same,Sunlight exposure (80 MJ) Smell evaluation,"[3]; natural perfume Rose oil 0.03, photostabilizer 0.02, no sequestering agent",B
same,Sunlight exposure (80 MJ) Smell evaluation,"[3]; natural perfume Ylang ylang oil 0.03, photostabilizer 0.02 + Trisodium hydroxyethyl ethylenediamine triacetate 0.03",A
same,Sunlight exposure (80 MJ) Smell evaluation,"[3]; natural perfume Ylang ylang oil 0.03, photostabilizer 0.02, no sequestering agent",B
same,smell change,"[3]; natural perfume, Table 27",very small
same,Sunlight exposure (80 MJ) Smell evaluation,"[3]; perfume Aldehyde 0.03, photostabilizer 0.05 + Trisodium hydroxyethyl ethylenediamine triacetate 0.03",A
same,Sunlight exposure (80 MJ) Smell evaluation,"[3]; perfume Aldehyde 0.03, photostabilizer 0.05, no sequestering agent",B
same,Sunlight exposure (80 MJ) Smell evaluation,"[3]; perfume Animal 0.03, photostabilizer 0.1 + Trisodium ethylenediamine tetraacetate 0.03",A
same,Sunlight exposure (80 MJ) Smell evaluation,"[3]; perfume Animal 0.03, photostabilizer 0.1, no sequestering agent",B
same,Sunlight exposure (80 MJ) Smell evaluation,"[3]; perfume Fruity 0.03, photostabilizer 0.03 + Sodium metaphosphate 0.03",A
same,Sunlight exposure (80 MJ) Smell evaluation,"[3]; perfume Fruity 0.03, photostabilizer 0.03, no sequestering agent",B
same,Sunlight exposure (80 MJ) Smell evaluation,"[3]; perfume Green 0.03, photostabilizer 0.01 + Trisodium hydroxyethyl ethylenediamine triacetate 0.03",A
same,Sunlight exposure (80 MJ) Smell evaluation,"[3]; perfume Green 0.03, photostabilizer 0.01, no sequestering agent",B
same,Sunlight exposure (80 MJ) Smell evaluation,"[3]; perfume Jasmine 0.03, photostabilizer 0.02 + Trisodium ethylenediamine tetraacetate 0.03",A
same,Sunlight exposure (80 MJ) Smell evaluation,"[3]; perfume Jasmine 0.03, photostabilizer 0.02, no sequestering agent",B
same,Sunlight exposure (80 MJ) Smell evaluation,"[3]; perfume Muguet 0.03, photostabilizer 0.02 + Sodium metaphosphate 0.03",A
same,Sunlight exposure (80 MJ) Smell evaluation,"[3]; perfume Muguet 0.03, photostabilizer 0.02, no sequestering agent",B
same,Sunlight exposure (80 MJ) Smell evaluation,"[3]; perfume Oriental 0.03, photostabilizer 0.01 + Trisodium ethylenediamine tetraacetate 0.03",A
same,Sunlight exposure (80 MJ) Smell evaluation,"[3]; perfume Oriental 0.03, photostabilizer 0.01, no sequestering agent",B
same,Sunlight exposure (80 MJ) Smell evaluation,"[3]; perfume Rose 0.03, photostabilizer 0.02 + Trisodium hydroxyethyl ethylenediamine triacetate 0.03",A
same,Sunlight exposure (80 MJ) Smell evaluation,"[3]; perfume Rose 0.03, photostabilizer 0.02, no sequestering agent",B
same,Sunlight exposure (80 MJ) Smell evaluation,"[3]; synthetic perfume Benzyl benzoate 0.03, photostabilizer 0.02 + Trisodium hydroxyethyl ethylenediamine triacetate 0.03",A
same,Sunlight exposure (80 MJ) Smell evaluation,"[3]; synthetic perfume Benzyl benzoate 0.03, photostabilizer 0.02, no sequestering agent",B
same,Sunlight exposure (80 MJ) Smell evaluation,"[3]; synthetic perfume Citral 0.03, photostabilizer 0.01 + Trisodium hydroxyethyl ethylenediamine triacetate 0.03",A
same,Sunlight exposure (80 MJ) Smell evaluation,"[3]; synthetic perfume Citral 0.03, photostabilizer 0.01, no sequestering agent",B
same,Sunlight exposure (80 MJ) Smell evaluation,"[3]; synthetic perfume Lilial 0.03, photostabilizer 0.1 + Sodium metaphosphate 0.03",A
same,Sunlight exposure (80 MJ) Smell evaluation,"[3]; synthetic perfume Lilial 0.03, photostabilizer 0.1, no sequestering agent",B
same,Sunlight exposure (80 MJ) Smell evaluation,"[3]; synthetic perfume Limonene 0.03, photostabilizer 0.02 + Trisodium hydroxyethyl ethylenediamine triacetate 0.03",A
same,Sunlight exposure (80 MJ) Smell evaluation,"[3]; synthetic perfume Limonene 0.03, photostabilizer 0.02, no sequestering agent",B
same,Sunlight exposure (80 MJ) Smell evaluation,"[3]; synthetic perfume Oranthiol 0.03, photostabilizer 0.05 + Sodium metaphosphate 0.03",A
same,Sunlight exposure (80 MJ) Smell evaluation,"[3]; synthetic perfume Oranthiol 0.03, photostabilizer 0.05, no sequestering agent",B
same,Sunlight exposure (80 MJ) Smell evaluation,"[3]; synthetic perfume Rose oxide 0.03, photostabilizer 0.05 + Trisodium ethylenediamine tetraacetate 0.03",A
same,Sunlight exposure (80 MJ) Smell evaluation,"[3]; synthetic perfume Rose oxide 0.03, photostabilizer 0.05, no sequestering agent",B
same,Sunlight exposure (80 MJ) Smell evaluation,"[3]; synthetic perfume cis-3-Hexenol 0.03, photostabilizer 0.02 + Trisodium ethylenediamine tetraacetate 0.03",A
same,Sunlight exposure (80 MJ) Smell evaluation,"[3]; synthetic perfume cis-3-Hexenol 0.03, photostabilizer 0.02, no sequestering agent",B
same,Sunlight exposure (80 MJ) Smell evaluation,"[3]; synthetic perfume β-ionone 0.03, photostabilizer 0.01 + Trisodium ethylenediamine tetraacetate 0.03",A
same,Sunlight exposure (80 MJ) Smell evaluation,"[3]; synthetic perfume β-ionone 0.03, photostabilizer 0.01, no sequestering agent",B
same,smell change,"[3]; synthetic perfume, Table 28",very small
same,Sunlight exposure (80 MJ) Appearance,[4]; [5],A
same,Sunlight exposure (80 MJ) Residual yield [%],[4]; [5],99.3%
same,Sunlight exposure (80 MJ) Appearance,[4]; [6],A
same,Sunlight exposure (80 MJ) Residual yield [%],[4]; [6],98.8%
same,Sunlight exposure (80 MJ) Appearance,[4]; [7],A
same,Sunlight exposure (80 MJ) Residual yield [%],[4]; [7],100.3%
same,Sunlight exposure (80 MJ) Appearance,[4]; [8],A
same,Sunlight exposure (80 MJ) Residual yield [%],[4]; [8],99.4%
same,Sunlight exposure (80 MJ) Appearance,[4]; drug Salicylic acid 0.1,A
same,Sunlight exposure (80 MJ) Residual yield [%],[4]; drug Salicylic acid 0.1,100.3%
same,appearance changes of the composition,[4]; [9],small
same,residual yield of a drug,[4]; [9],very high in comparison with other photostabilizers
same,UV prevent effect,"sunburn; Cream, ultraviolet absorbent 0.0005 wt %",C (Subject of remarkable effect or positive effect is 30% or more and less than 50%.)
same,UV prevent effect,"sunburn; Cream, ultraviolet absorbent 0.001 wt %",B (Subject of remarkable effect or positive effect is 50% or more and less than 80%.)
same,UV prevent effect,"sunburn; Cream, ultraviolet absorbent 0.1 wt %",A (Subject of remarkable effect or positive effect is 80% or more.)
same,UV prevent effect,"sunburn; Cream, ultraviolet absorbent 1 wt %",A (Subject of remarkable effect or positive effect is 80% or more.)
same,UV prevent effect,"sunburn; Cream, ultraviolet absorbent 5 wt %",A (Subject of remarkable effect or positive effect is 80% or more.)
same,UV prevent effect,"sunburn; Cream, ultraviolet absorbent 10 wt %",A (Subject of remarkable effect or positive effect is 80% or more.)
same,UV prevent effect,"sunburn; Cream, ultraviolet absorbent 20 wt %",A (Subject of remarkable effect or positive effect is 80% or more.)
same,UV prevent effect,"sunburn; Lotion, ultraviolet absorbent 0.0005 wt %",C (Subject of remarkable effect or positive effect is 30% or more and less than 50%.)
same,UV prevent effect,"sunburn; Lotion, ultraviolet absorbent 0.001 wt %",B (Subject of remarkable effect or positive effect is 50% or more and less than 80%.)
same,UV prevent effect,"sunburn; Lotion, ultraviolet absorbent 0.01 wt %",A (Subject of remarkable effect or positive effect is 80% or more.)
same,UV prevent effect,"sunburn; Lotion, ultraviolet absorbent 1 wt %",A (Subject of remarkable effect or positive effect is 80% or more.)
same,UV prevent effect,"sunburn; Lotion, ultraviolet absorbent 5 wt %",A (Subject of remarkable effect or positive effect is 80% or more.)
same,UV prevent effect,"sunburn; Lotion, ultraviolet absorbent 10 wt %",A (Subject of remarkable effect or positive effect is 80% or more.)
same,UV prevent effect,"sunburn; Lotion, ultraviolet absorbent 20 wt %",A (Subject of remarkable effect or positive effect is 80% or more.)
